This test concerns MCF-7 xenograft tumor. As to the kind of experiment: MCF-7 xenograft tumor model, combination study. The class given is in vivo. Particulars: single agent, FIG. 3.

Structures are written as SMILES.

Regarding `C=CCn1c(=O)c2cnc(Nc3ccc(N4CCN(C)CC4)cc3)nc2n1-c1cccc(C(C)(C)O)n1` [Compound 1], the TGI (dose not printed for the single agent) is recorded as 122.8%. As for `C[C@@H]1Cc2c([nH]c3ccccc23)[C@@H](c2c(F)cc(/C=C/C(=O)O)cc2F)N1C12CC(C1)C2` [Compound (A)], under “10 mg/kg”, the TGI came out at 128.3%.

(Values after US20230042653A1, “COMBINATIONS” (Recurium IP Holdings, LLC, priority 2019, published 2023).)
